Results as given in US20240327392A1, “HETEROCYCLOALKYL-SUBSTITUTED POLYHETEROAZOLE DERIVATIVES AS MEDICAMENTS FOR TREATING AND/OR PREVENTING RS VIRUS INFECTIONS” (ALBIUS SCIENCES ALPHA PRIVATE LIMITED, priority 2021, published 2024).

test system: human RS virus A2 strain; assay: In vitro test for anti-RS virus proliferation inhibitory activity (quantitative RT-PCR of RS virus RNA copy number in infected Vero cells); assay type: cell-based; conditions: 72 h; Vero cells infected with human RS virus A2 strain, 3 days of incubation, RS virus N gene RNA copy number by quantitative RT-PCR; read-out: Anti-RS virus Activity
Description: A mixture of Vero cells (3.4×10^5 cells/mL) and human RS virus A2 strain (1.7×10^4 TCID50/mL) (EMEM medium supplemented with 10% FCS) was added to a 96-well plate at 50 μL/well, and the 10% FCS-supplemented EMEM medium adjusted to the desired final concentration of the compounds to be tested was added at 50 μL/well, followed by incubating the plate at 37° C. in the presence of 5% CO2 at 37° C. After 3 days of incubation, the supernatant was removed, the cells were washed with PBS(−), and the cell lysis buffer supplied with the SingleShot (registered trademark) Cell Lysis Kit (Bio-Rad) was added dropwise at 50 μL/well to lysis the cells thereby providing the cell lysate.
Human RS virus RNA copy number in the cell lysate was determined by quantitative RT-PCR using iTaq Universal SYBR Green One-Step Kit (Bio-Rad). Specifically, primers targeting human RS virus N gene (Rameix-Welti et al, Nat Commun5: 5104, 2014. doi: 10.1038/ncomms6104) was used to prepare the reaction solution according to the instructions provided with the kit, and a 96-well PikoReal Real-Time PCR System (TCR0096, Thermo Fisher Scientific) was used to detect PCR reaction and signal assay.
The copy number was calculated by the relative method using the comparative Ct method using compound-free virus-infected cells as controls.

SMILES	IC50
O=S(=O)(Cc1ccccc1)N1C[C@H](O)C[C@H]1c1nc(CCCc2ccccc2)no1 [Compound 3E, 3-(3-phenylpropyl)-5-[(2S,4R)-1-benzylsulfonyl-4-hydroxypyrrolidin-2-yl]-1,2,4-oxadiazole]	10 to 50 µM
CC(C)(C)O[C@@H]1C[C@@H](c2nc(CCCc3ccccc3)no2)N(S(=O)(=O)C2CCCCC2)C1 [Compound 4B, 3-(3-phenylpropyl)-5-[(2S,4R)-4-tert-butoxy-1-cyclohexylsulfonyl-pyrrolidin-2-yl]-1,2,4-oxadiazole]	< 10 µM

same assay, conditions: 72 h; Vero cells infected with human RS virus A2 strain, 3 days of incubation, RS virus RNA copy number by quantitative RT-PCR; read-out: Anti-RS virus Activity

SMILES	IC50
CCOC(=O)C1CCN(S(=O)(=O)N2C[C@H](c3ccccc3)C[C@H]2c2nc(CCCc3ccccc3)no2)CC1 [Compound 7AC, ethyl 1-(((2S,4S)-4-phenyl2-(3-(3-phenylpropyl)-1,2,4-oxadiazole-5-yl)pyrrolidin-1-yl)sulfonyl)piperidin-4-carboxylate]	10 to 50 µM
CC(C)(C)OC(=O)N1C[C@H](c2ccccc2)C[C@H]1c1nnc(CCCc2ccccc2)[nH]1 [Compound 19-1, Tert-butyl (2S,4S)-4-phenyl-2-(5-(3-phenylpropyl)-4H-1,2,4-triazol-3-yl)pyrrolidine-1-carboxylate]	< 10 µM
O=S(=O)(Cc1ccccc1)N1CC(CC2CCC2)CC1c1nc(CCCc2ccccc2)no1 (stereo not drawn) [Compound 6E, 3-(3-phenylpropyl)-5-(1-benzylsulfonyl-4-cyclobutylmethylpyrrolidin-2-yl)-1,2,4-oxadiazole]	< 10 µM
CC(C)(C)OC(=O)N1CCCC[C@H]1c1nc(CCc2ccncc2)no1 [Compound 12-1, Tert-butyl (S)-2-(3-(2-(pyridin-4-yl)ethyl)-1,2,4-oxadiazol-5-yl)piperidine-1-carboxylate]	< 10 µM
CC(C)CS(=O)(=O)N1CCC[C@H]1c1nc(CCc2ccccc2)no1 [Compound 9A, 3-(2-phenylethyl)-5-[(2S)-1-isobutylsulfonylpyrrolidin-2-yl]-1,2,4-oxadiazole]	> 50 µM
CC(C)(C)OC(=O)N1CC(CS(=O)(=O)N2C[C@H](c3ccccc3)C[C@H]2c2nc(CCCc3ccccc3)no2)C1 [Compound 7AM, tert-buthyl 3-((((2S,4S)-4-phenyl2-(3-(3-phenylpropyl)-1,2,4-oxadiazole-5-yl)pyrrolidin-1-yl)sulfonyl)methyl)azetidin-1-carboxylate]	< 10 µM
O=S(=O)(N1CCOCC1)N1CC(CC2CCC2)CC1c1nc(CCCc2ccccc2)no1 (stereo not drawn) [Compound 6AE, 4-((4-(cyclobuthylmethyl)-2-(3-(3-phenylpropyl)-1,2,4-oxadiazole-5-yl)pyrrolidin-1-yyl)sulfonyl)morpholine]	10 to 50 µM
O=S(=O)(N1CCOCC1)N1CC2(CC2)C[C@H]1c1nc(CCCc2ccccc2)no1 [Compound 5AE, (S)-4-((6-(3-(3-phenylpropyl)-1,2,4-oxadiazole-5-yl)-5-azaspiro[2.4]heptan-5-yl)sulfonyl)morpholine]	10 to 50 µM
CCOC(=O)C1CCN(S(=O)(=O)N2CC(CC3CCC3)CC2c2nc(CCCc3ccccc3)no2)CC1 (stereo not drawn) [Compound 6AC, ethyl 1-((4-(cyclobuthylmethyl)-2-(3-(3-phenylpropyl)-1,2,4-oxadiazole-5-yl)pyrrolidin-1-yl)sulfonyl)piperidin-4-carboxylate]	10 to 50 µM
O=S(=O)(N1CCCCC1)N1CC(CC2CCC2)CC1c1nc(CCCc2ccccc2)no1 (stereo not drawn) [Compound 6AD, 5-(4-(cyclobuthylmethyl)-1-(piperidin-1-ylsulfonyl)pyrrolidin-2-yl)-3-(3-phenylpropyl)-1,2,4-oxadiazole]	10 to 50 µM
O=C(NCc1cnc2ccccc2c1)N1[C@@H]2CC[C@@H](C2)[C@H]1c1nnc(Cc2cc3ccccc3[nH]2)[nH]1 [Compound 28AH]	10 to 50 µM
CC(C)(C)OC(=O)N1CCC(CS(=O)(=O)N2C[C@H](c3ccccc3)C[C@H]2c2nc(CCCc3ccccc3)no2)CC1 [Compound 7AN, tert-buthyl 4-((((2S,4S)-4-phenyl2-(3-(3-phenylpropyl)-1,2,4-oxadiazole-5-yl)pyrrolidin-1-yl)sulfonyl)methyl)piperidin-1-carboxylate]	< 10 µM
CC(C)(C)OC(=O)N1C[C@H](c2ccccc2)C[C@H]1c1nc(CCc2ccccc2)no1 [Compound C2-7-1, Tert-butyl (2S,4S)-2-(3-phenethyl-1,2,4-oxadiazol-5-yl)-4-phenylpyrrolidine-1-carboxylate]	10 to 50 µM
O=S(=O)(c1ccccc1)N1C[C@H](F)C[C@H]1c1nc(CCCc2ccccc2)no1 [Compound 8D, 3-(3-phenylpropyl)-5-[(2S,4R)-1-benzenesulfonyl-4-fluoropyrrolidin-2-yl]-1,2,4-oxadiazole]	10 to 50 µM
CC(C)CC(=O)N1CCC[C@H]1c1nc(CCCc2ccccc2)no1 [Compound 1Q, (S)-3-Methyl-1-(2-(3-(3-phenylpropyl)-1,2,4-oxadiazol-5-yl)pyrrolidin-1-yl) butan-1-one]	< 10 µM
CN(C)c1ccc(S(=O)(=O)N2C[C@H](c3ccccc3)C[C@H]2c2nc(CCCc3ccccc3)no2)cc1 [Compound 7AK, N,N-dimethyl-4-(((2S,4S)-4-phenyl2-(3-(3-phenylpropyl)-1,2,4-oxadiazole-5-yl)pyrrolidin-1-yl)sulfonyl)aniline]	< 10 µM

SMILES	IC50
O=S(=O)(N1CCCCC1)N1[C@@H]2CC[C@@H](C2)[C@H]1c1nnc(CCc2ccncc2)[nH]1 [Compound 25AD, (1R,3S,4S)-2-(piperidine-1-ylsulfonyl)-3-(5-(2-(pyridin-4-yl)ethyl)-4H-1,2,4-triazol-3-yl)-2-azabicyclo[2.2.1]heptane]	10 to 50 µM
CC(C)(C)OC(=O)N1C[C@@H](CC2CCC2)C[C@H]1c1nc(CCCc2ccccc2)no1 (racemic) [Compound 6-1, 3-(3-phenylpropyl)-5-(1-tert-butoxycarbonyl-4-cyclobutylmethylpyrrolidin-2-yl)-1,2,4-oxadiazole]	< 10 µM
COc1ccc(S(=O)(=O)N2CC3(CC3)C[C@H]2c2nc(CCCc3ccccc3)no2)cc1 [Compound 5AI, (S)-5-(5-((4-methoxyphenyl)sulfonyl)-5-azabicyclo[2.4]heptan-6-yl)-3-(3-phenylpropyl)-1,2,4-oxadiazole]	10 to 50 µM
O=C(NCc1ccccc1)N1CCC[C@H]1c1nc(CCCc2ccccc2)no1 [Compound 1F, (S)—N-Benzyl-2-(3-(3-phenylpropyl)-1,2,4-oxadiazol-5-yl) pyrrolidine-1-carboxamide]	10 to 50 µM
CC(C)(C)OC(=O)N1CCCC[C@H]1c1nnc(CCCc2ccccc2)o1 [Compound 18-1, Tert-butyl (S)-2-(5-(3-phenylpropyl)-1,3,4-oxadiazol-2-yl) piperidine-1-carboxylate]	< 10 µM
CC(C)(C)OC(=O)NCc1ccc(CCCc2noc([C@@H]3CCCCN3S(=O)(=O)C3CCCCC3)n2)cc1 [Compound 30B]	10 to 50 µM
c1ccc(CCCc2noc([C@@H]3CCCCN3CCc3ccccc3)n2)cc1 [Compound 2AB, (S)-5-(1-phenethylpiperidin-2-yl)-3-(3-phenylpropyl)-1,2,4-oxadiazole]	10 to 50 µM
CC(C)(C)NC(=O)N1CCC[C@H]1c1nc(CCCc2ccccc2)no1 [Compound 1H, (S)—N-(tert-butyl)-2-(3-(3-phenylpropyl)-1,2,4-oxadiazol-5-yl) pyrrolidine-1-carboxamide]	> 50 µM
O=S(=O)(c1ccc(F)cc1)N1C[C@H](c2ccccc2)C[C@H]1c1nc(CCCc2ccccc2)no1 [Compound 7AJ]	< 10 µM
CC(C)(C)OC(=O)N1C[C@H](F)C[C@H]1c1nc(CCCc2ccccc2)no1 [Compound 8-1, 3-(3-phenylpropyl)-5-[(2S,4R)-1-tert-butoxycarbonyl-4-fluoropyrrolidin-2-yl]-1,2,4-oxadiazole]	< 10 µM
O=S(=O)(N1CCCCC1)N1C[C@H](F)C[C@H]1c1nc(CCCc2ccccc2)no1 [Compound 8AD, 5-((2S,4R)-4-fluoro-1-(piperidin-1-ylsulfonyl)pyrrolidin-2-yl)-3-(3-phenylpropyl)-1,2,4-oxadiazole]	10 to 50 µM
CCOC(=O)C1CCN(S(=O)(=O)N2CCCC[C@H]2c2nc(CCCc3ccccc3)no2)CC1 [Compound 2AC, Ethyl (S)-1-((2-(3-(3-phenylpropyl)-1,2,4-oxadiazol-5-yl)piperidin-1-yl)sulfonyl)piperidine-4-carboxylate]	10 to 50 µM
CC(C)(C)OC(=O)N1CCCC[C@H]1c1noc(CCCc2ccccc2)n1 [Compound C3-16-1, Tert-butyl (S)-2-(5-(3-phenylpropyl)-1,2,4-oxadiazol-3-yl) piperidine-1-carboxylate]	< 10 µM
CC(C)(C)OC(=O)N1CCC(S(=O)(=O)N2CC3(CC3)C[C@H]2c2nc(CCCc3ccccc3)no2)CC1 [Compound 5AO, tert-buthyl (S)-4-((6-(3-(3-phenylpropyl)-1,2,4-oxadiazole-5-yl)-5-azaspiro[2.4]heptan-5-yl)sulfonyl)piperidin-1-carboxylate]	< 10 µM
O=C(N1CC2(CC2)C[C@H]1c1nc(CCCc2ccccc2)no1)C(F)(F)F [5D′, 3-(3-Phenylpropyl)-5-{(6S)-5-trifluoroacetyl-5-azaspiro[2.4]hept-6-yl}-1,2,4-oxadiazole]	< 10 µM
